Data published in ChEMBL document CHEMBL2074481, “Regulation of rat multidrug resistance protein 2 by classes of prototypical microsomal enzyme inducers that activate distinct transcription pathways” (Toxicol Sci, 2002).

Biological target: ATP-binding cassette sub-family C member 2 (Rattus norvegicus, UniProt Q63120)
Experiment: TP_TRANSPORTER: Western in vivo, liver of SD rat
Assay type: functional, organism-based, Sprague-Dawley

Chain of ATP-binding cassette sub-family C member 2 (Q63120 whole entry): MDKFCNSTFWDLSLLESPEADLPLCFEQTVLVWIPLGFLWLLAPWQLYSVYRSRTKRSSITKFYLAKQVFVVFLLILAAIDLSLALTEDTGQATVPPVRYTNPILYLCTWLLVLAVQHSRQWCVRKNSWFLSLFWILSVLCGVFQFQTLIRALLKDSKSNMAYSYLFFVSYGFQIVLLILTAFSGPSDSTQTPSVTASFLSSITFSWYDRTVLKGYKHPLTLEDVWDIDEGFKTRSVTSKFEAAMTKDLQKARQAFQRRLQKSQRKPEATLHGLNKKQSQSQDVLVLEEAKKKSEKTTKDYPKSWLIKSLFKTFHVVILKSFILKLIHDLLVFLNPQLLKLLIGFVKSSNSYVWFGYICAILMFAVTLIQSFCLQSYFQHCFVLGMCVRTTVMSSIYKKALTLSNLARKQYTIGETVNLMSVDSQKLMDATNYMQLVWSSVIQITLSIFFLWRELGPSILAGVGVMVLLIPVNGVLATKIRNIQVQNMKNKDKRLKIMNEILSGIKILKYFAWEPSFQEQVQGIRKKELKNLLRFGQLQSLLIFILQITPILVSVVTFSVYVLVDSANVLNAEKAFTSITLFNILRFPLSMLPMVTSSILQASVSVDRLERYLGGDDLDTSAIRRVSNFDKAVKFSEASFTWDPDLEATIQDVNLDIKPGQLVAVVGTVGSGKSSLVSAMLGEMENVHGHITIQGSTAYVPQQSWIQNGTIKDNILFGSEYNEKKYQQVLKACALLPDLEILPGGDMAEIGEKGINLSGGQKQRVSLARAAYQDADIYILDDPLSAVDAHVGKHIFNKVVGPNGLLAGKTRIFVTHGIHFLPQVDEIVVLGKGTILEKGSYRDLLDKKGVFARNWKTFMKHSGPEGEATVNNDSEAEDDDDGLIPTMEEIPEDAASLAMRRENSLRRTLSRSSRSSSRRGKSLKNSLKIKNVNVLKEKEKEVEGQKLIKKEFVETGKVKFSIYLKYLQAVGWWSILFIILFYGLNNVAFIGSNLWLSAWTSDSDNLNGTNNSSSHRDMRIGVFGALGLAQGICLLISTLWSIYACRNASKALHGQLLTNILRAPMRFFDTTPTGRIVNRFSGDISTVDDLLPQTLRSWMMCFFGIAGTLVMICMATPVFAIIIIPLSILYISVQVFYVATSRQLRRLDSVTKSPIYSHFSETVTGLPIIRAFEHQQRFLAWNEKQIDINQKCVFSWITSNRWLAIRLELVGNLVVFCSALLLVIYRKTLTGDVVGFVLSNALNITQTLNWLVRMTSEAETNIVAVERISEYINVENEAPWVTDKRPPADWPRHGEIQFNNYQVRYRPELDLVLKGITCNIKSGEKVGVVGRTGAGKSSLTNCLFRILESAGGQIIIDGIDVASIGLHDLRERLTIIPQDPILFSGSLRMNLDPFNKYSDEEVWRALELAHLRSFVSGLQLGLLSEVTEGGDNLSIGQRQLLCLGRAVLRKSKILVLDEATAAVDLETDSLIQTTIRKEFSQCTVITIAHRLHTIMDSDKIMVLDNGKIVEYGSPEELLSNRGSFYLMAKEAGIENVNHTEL

Row | Activity | SMILES
1 | inducer [+] | CCOc1ccc2c(c1)C(C)=CC(C)(C)N2 [E324]
2 | inducer [+] | CC(=O)S[C@@H]1CC2=CC(=O)CC[C@]2(C)[C@H]2CC[C@@]3(C)[C@@H](CC[C@@]34CCC(=O)O4)[C@H]12 [SPIRONOLACTONE]
